Assay results reported in US20150302140A1, “IN SILICO IDENTIFICATION OF CANCER MOLECULAR SIGNALING PATHWAYS AND DRUG CANDIDATES” (H. LEE MOFFITT CANCER CENTER AND RESEARCH INSTITUTE, INC., priority 2012, published 2015).
“Also recorded” adds a separate entry of the source. Like-named read-outs stand apart in the source and are kept apart here.

What was measured:
Format in all cases: cell-based
five OVCA cell lines = assay: MTS assay, summary over five OVCA cell lines; conditions: for IC50: five OVCA cell lines, 72 hours, MTS
Excerpt: (§1) Ovarian cancer cell lines were either obtained from the European Collection of Cell Cultures, Salisbury, England (A2780S), or were kind gifts from Dr. Patricia Kruk, Department of Pathology, College of Medicine, University of South Florida, Tampa, Fla., and Susan Murphy, PhD, Dept of OB/GYN, Division of GYN Oncology, Duke University, Durham, N.C. (HeyA8, OVCAR2, OVCAR8, and OVCA420). Cell lines were maintained in RPMI-1640 (Invitrogen; Carlsbad, Calif.) supplemented with 10% fetal bovine serum (Fisher Scientific; Pittsburgh, Pa.), 1% sodium pyruvate, 1% penicillin/streptomycin, and 1% nonessential amino acids (HyClone; Hudson, N.H.). Mycoplasma testing was performed every 6 months following manufacturer's protocol (Lonza, Rockland, Me.).
(§2) The MTS assay was used to assess viability of the OVCA cell lines. For the assays, 3-5×10^4 cells in 100 μL were plated to each well of a 96-well plate and allowed to adhere overnight at 37° C. and 5% CO2. The following day, cells were incubated with increasing concentrations of drug for 72 hours. Cell viability was analyzed using the CellTiter96® MTS assay kit (Promega, Madison, Wis.). Three replicate wells were used for each drug concentration, and an additional three control wells received a diluent control without drug. After drug incubation, the optical density of each well was read at 490 nm using a SpectraMax 190 microplate reader (Molecular Devices Inc., Sunnyvale, Calif.). Percent cell survival was expressed as (control-treated)/(control-blank)×100. All experiments were performed three times, or the minimum number of times to ensure reproducibility and accuracy of the results.
The cytotoxic effects of continuous exposure to dasatinib and artesunate were assessed for five OVCA cell lines at 72 hours using the MTS assay (Table 5).

HeyA8 OVCA cells = assay: In vitro scratch assay (cell migration); conditions: HeyA8, 25 mM or 50 mM artesunate, imaged days 0-2; DMSO vehicle closed gap within 2 days
Experimental: The effects of pathway inhibition on OVCA cell metastatic properties were investigated using the in vitro scratch assay. HeyA8 OVCA cells were maintained in RPMI 1640 medium (Invitrogen) supplemented with 10% fetal bovine serum (FBS; Fisher Scientific, Pittsburgh, Pa.), 1% sodiumpyruvate, 1% penicillin/streptomycin (Cellgro, Manassas, Va.), and 1% nonessential amino acids (HyClone, Hudson, N.H.). Monolayers, 75-80% confluent, were cultured in serum-free media for 4 hours and then mechanically disrupted to create a wound using a 1 mL pipette tip. Culture plates were washed twice with serum-free media to remove floating cells and then incubated with media containing 10% FBS and either vehicle (dimethylsulfoxide [DMSO]) or drug. The DMSO concentration was maintained below 0.5% so as not to influence cell growth or migration. The underside of the culture plate by the wound area was marked with a Sharpie for reference, and wounds were imaged by phase-contrast microscopy on days 0, 1, and 2.

HEYA8 = assay: MTS cell proliferation/viability assay, 72 hours drug exposure; conditions: HEY A8, log10 of IC50, uM
Excerpt: as §1, §2

OVCA2 = assay: as above; conditions: log10 of IC50, uM
Excerpt: as §1, §2

A2780S = assay: as above; conditions: Homo sapiens, log10 of IC50, uM
Excerpt: as §1, §2

OVCA8 = assay: as above; conditions: log10 of IC50, uM
Excerpt: as §1, §2

OVCA420 = assay: as above; conditions: OVCA 420, log10 of IC50, uM
Excerpt: as §1, §2

HeyA8 OVCA cell = assay: HeyA8 cell proliferation under artesunate

Compound | IC50 (five OVCA cell lines; log10 value, read-out: median IC50 (log 10) (converted)) [nM] | IC50 (five OVCA cell lines; log10 values, read-out: range of IC50 (log 10) (converted)) [nM] | IC50 (five OVCA cell lines; read-out: median IC50) [nM] | IC50 (five OVCA cell lines; read-out: range of IC50) [nM] | anti-proliferative activity against a panel of OVCA cells (five OVCA cell lines; panel of OVCA cells) | ability of cells to migrate into the denuded area / fill in the gap of a scratch test (HeyA8 OVCA cells) | IC50 (HEYA8) [µM] | IC50 (OVCA2) [µM] | IC50 (A2780S) [µM] | IC50 (OVCA8) [µM] | IC50 (OVCA420) [µM] | decrease of HeyA8 OVCA cell proliferation (HeyA8 OVCA cell; 25 mM artesunate) | decrease of HeyA8 OVCA cell proliferation (HeyA8 OVCA cell; 50 mM artesunate) [%] | IC50 (five OVCA cell lines; read-out: mean IC50) [nM]
C[C@H]1[C@H](OC(=O)CCC(=O)O)O[C@@H]2O[C@@]3(C)CC[C@H]4[C@H](C)CC[C@@H]1[C@@]24OO3 [Artesunate] | 4290 | 88.2 to 1290 | 7130 | 1230 to 19300 | anti-proliferative activity | impaired the ability of the cells to migrate; also recorded: impaired in their ability to fill in the gap | 7.92 | 1.31 | 1.23 | 5.9 | 19.3 | approximately 42% | ~64 | 
Cc1nc(Nc2ncc(C(=O)Nc3c(C)cccc3Cl)s2)cc(N2CCN(CCO)CC2)n1 [Dasatinib] |  |  |  | 214 to 953 |  |  | 0.215 | 0.953 | 0.918 | 0.37 | 0.431 |  |  | 577
